The nature of data set [1]: Antiproliferative activity against ALK constitutively activated human NCI-H3122 cells at 10 nM after 72 hrs by SRB or CCK8 assay relative to control. The settings on record: NCI-H3122, 72 h. In kind it is functional. On the technique in general: Formazan colour is commonly taken as a measure of viable cells.
For data set [2], the target named is T1, ALK tyrosine kinase receptor (Homo sapiens, UniProt Q9UM73). The experiment in a line: Inhibition of recombinant wild type ALK (unknown origin) using poly (Glu,Tyr)4:1 as substrate after 60 mins by ELISA. On the technique in general: ELISA stands for enzyme-linked immunosorbent assay.
Target sequence in this assay (Q9UM73 whole entry): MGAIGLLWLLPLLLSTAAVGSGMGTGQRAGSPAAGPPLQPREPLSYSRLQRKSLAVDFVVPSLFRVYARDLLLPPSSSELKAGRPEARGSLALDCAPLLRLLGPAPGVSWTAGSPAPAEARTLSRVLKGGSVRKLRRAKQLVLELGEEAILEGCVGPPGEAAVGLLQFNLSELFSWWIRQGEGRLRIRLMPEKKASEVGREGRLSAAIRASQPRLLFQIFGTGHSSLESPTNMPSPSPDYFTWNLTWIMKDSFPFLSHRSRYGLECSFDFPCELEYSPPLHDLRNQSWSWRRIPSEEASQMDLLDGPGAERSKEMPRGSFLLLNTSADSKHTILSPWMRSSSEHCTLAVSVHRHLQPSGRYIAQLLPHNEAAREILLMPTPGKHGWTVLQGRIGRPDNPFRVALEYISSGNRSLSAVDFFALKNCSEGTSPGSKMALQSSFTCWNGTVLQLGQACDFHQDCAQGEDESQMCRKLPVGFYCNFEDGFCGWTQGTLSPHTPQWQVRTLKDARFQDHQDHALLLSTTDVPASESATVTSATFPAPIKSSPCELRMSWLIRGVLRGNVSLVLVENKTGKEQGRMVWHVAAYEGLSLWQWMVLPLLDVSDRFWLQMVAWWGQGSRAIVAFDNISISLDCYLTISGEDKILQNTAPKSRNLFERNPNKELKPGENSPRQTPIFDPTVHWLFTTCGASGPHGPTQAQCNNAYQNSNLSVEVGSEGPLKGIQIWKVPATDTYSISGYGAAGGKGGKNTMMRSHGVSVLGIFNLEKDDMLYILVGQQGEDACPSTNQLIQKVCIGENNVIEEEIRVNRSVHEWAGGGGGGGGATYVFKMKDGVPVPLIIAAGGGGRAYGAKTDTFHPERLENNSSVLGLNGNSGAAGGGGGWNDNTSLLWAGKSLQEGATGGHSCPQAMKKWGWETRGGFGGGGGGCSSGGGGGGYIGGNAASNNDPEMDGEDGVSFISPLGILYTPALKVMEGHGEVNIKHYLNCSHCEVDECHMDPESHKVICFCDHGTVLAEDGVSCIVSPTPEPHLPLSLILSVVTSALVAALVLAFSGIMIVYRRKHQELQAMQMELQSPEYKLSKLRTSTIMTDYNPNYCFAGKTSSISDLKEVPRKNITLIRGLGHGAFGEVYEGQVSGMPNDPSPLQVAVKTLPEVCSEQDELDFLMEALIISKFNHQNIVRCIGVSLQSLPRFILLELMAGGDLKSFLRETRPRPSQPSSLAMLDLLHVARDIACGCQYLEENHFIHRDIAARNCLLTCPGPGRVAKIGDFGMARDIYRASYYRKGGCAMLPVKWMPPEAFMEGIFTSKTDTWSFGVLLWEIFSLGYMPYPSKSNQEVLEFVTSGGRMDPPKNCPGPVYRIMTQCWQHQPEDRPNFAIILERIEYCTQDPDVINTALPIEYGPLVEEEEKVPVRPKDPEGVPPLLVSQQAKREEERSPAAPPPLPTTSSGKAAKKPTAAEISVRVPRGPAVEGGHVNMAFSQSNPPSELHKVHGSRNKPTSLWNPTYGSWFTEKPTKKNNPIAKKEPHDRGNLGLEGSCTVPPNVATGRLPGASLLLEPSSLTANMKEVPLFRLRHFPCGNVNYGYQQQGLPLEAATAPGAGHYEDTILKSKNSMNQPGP
Data set [3] is described as follows: Antiproliferative activity against ALK constitutively activated human NCI-H3122 cells at 50 nM after 72 hrs by SRB or CCK8 assay relative to control. The format is functional. The settings on record: NCI-H3122, 72 h.
The nature of data set [4]: Drug level in rat liver microsomes treated with 9-Ethyl-8-(4-((4-hydroxytetrahydro-2H-pyran-4-yl)methyl)piperazin-1-yl)-6,6-dimethyl-11-oxo-6,11-dihydro-5H-benzo[b]carbazole-3-carbonitrile after 3 hrs. The format is ADME. Background: Liver microsomes are vesicles of endoplasmic reticulum, rich in cytochrome P450 enzymes.
The target in data set [5] is Voltage-gated inwardly rectifying potassium channel KCNH2 (Homo sapiens, UniProt Q12809). The experiment in a line: Inhibition of human ERG.
Data set [6] in a line: Antitumor activity against human KARPAS299 cells xenografted in nude mouse assessed as tumor growth inhibition at 10 mg/kg, po qd administered for 14 days measured twice per week during compound dosing relative to vehicle-treated control. The format is functional. The conditions noted are these: KARPAS-299, po, 336 h, read-out: TGI.
Data set [7] can be described thus: Antitumor activity against human KARPAS299 cells xenografted in nude mouse assessed as tumor growth inhibition at 50 mg/kg, po qd administered for 14 days measured twice per week during compound dosing relative to vehicle-treated control. In kind it is functional. The settings on record: KARPAS-299, po, 336 h, read-out: TGI.
A further data set concerns Mus musculus. Briefly: Toxicity in nude mouse xenografted with human KARPAS299 cells assessed as body weight loss at 10 to 50 mg/kg, po qd administered for 14 days. The settings on record: in vivo, 336 h. In kind it is organism-based, KARPAS-299.
Data set [8] is described as follows: Antitumor activity against human KARPAS299 cells xenografted in nude mouse assessed as tumor growth inhibition at 20 mg/kg, po qd administered for 14 days measured twice per week during compound dosing relative to vehicle-treated control. The format is functional. The settings on record: KARPAS-299, po, 336 h, read-out: TGI.
The nature of data set [9]: Antiproliferative activity against ALK constitutively activated human KARPAS299 cells after 72 hrs by SRB or CCK8 assay. The settings on record: KARPAS-299, 72 h.
The nature of data set [10]: Antiproliferative activity against ALK constitutively activated human SU-DHL1 cells after 72 hrs by SRB or CCK8 assay. The conditions noted are these: SU-DHL-1, 72 h.
Data set [11] is described as follows: Antiproliferative activity against ALK constitutively activated human NCI-H3122 cells after 72 hrs by SRB or CCK8 assay. The settings on record: NCI-H3122, 72 h.
Data set [12] in a line: Clearance in Sprague-Dawley rat at 5 mg/kg, iv. In kind it is ADME, organism-based. The conditions noted are these: in vivo.
The target of data set [13] is ALK tyrosine kinase receptor (Homo sapiens, UniProt Q9UM73, L1196M). Briefly: Inhibition of recombinant ALK L1196M mutant (unknown origin) using poly (Glu,Tyr)4:1 as substrate after 60 mins by ELISA.
The target in data set [14] is Tyrosine-protein kinase ABL1 (Homo sapiens, UniProt P00519). Briefly: Inhibition of recombinant ABL (unknown origin) using poly (Glu,Tyr)4:1 as substrate after 60 mins by ELISA.
Data set [15] is described as follows: Oral bioavailability in Sprague-Dawley rat at 10 mg/kg. The format is ADME, organism-based. The settings on record: in vivo.
Data set [16] can be described thus: Cmax in Sprague-Dawley rat at 10 mg/kg, po. The format is ADME, organism-based. Also noted: dose 10 mg/kg, route oral. The settings on record: in vivo.
In data set [17] the target is Insulin-like growth factor 1 receptor (Homo sapiens, UniProt P08069). Briefly: Inhibition of recombinant IGF1R (unknown origin) using poly (Glu,Tyr)4:1 as substrate after 60 mins by ELISA.
For data set [18], the target named is Platelet-derived growth factor receptor beta (Homo sapiens, UniProt P09619). Briefly: Inhibition of recombinant PDGFR-beta (unknown origin) using poly (Glu,Tyr)4:1 as substrate after 60 mins by ELISA.
A short description of data set [19]: AUC (0 to infinity) in Sprague-Dawley rat at 5 mg/kg, iv. The format is ADME, organism-based. Further details: dose 5 mg/kg, time infinity, route intravenous. The conditions noted are these: in vivo.
Data set [20] in a line: Volume of distribution in Sprague-Dawley rat at 5 mg/kg, iv. The format is ADME, organism-based. The conditions noted are these: in vivo.
Another data set concerns the target Ephrin type-A receptor 2 (Homo sapiens, UniProt P29317). The experiment in a line: Inhibition of recombinant EPHA2 (unknown origin) using poly (Glu,Tyr)4:1 as substrate after 60 mins by ELISA.
A short description of data set [21]: AUC (0 to infinity) in Sprague-Dawley rat at 10 mg/kg, po. The format is ADME, organism-based. Also noted: dose 10 mg/kg, time infinity, route oral. The conditions noted are these: in vivo.
Data set [22] addresses Mast/stem cell growth factor receptor Kit (Homo sapiens, UniProt P10721). The experiment in a line: Inhibition of recombinant c-Kit (unknown origin) using poly (Glu,Tyr)4:1 as substrate after 60 mins by ELISA.
Data set [23] in a line: Tmax in Sprague-Dawley rat at 10 mg/kg, po. In kind it is ADME, organism-based. The settings on record: in vivo.
Data set [24] in a line: Half life in Sprague-Dawley rat at 5 mg/kg, iv. The format is ADME, organism-based. The conditions noted are these: in vivo.
The target in data set [25] is Platelet-derived growth factor receptor alpha (Homo sapiens, UniProt P16234). Briefly: Inhibition of recombinant PDGFR-alpha (unknown origin) using poly (Glu,Tyr)4:1 as substrate after 60 mins by ELISA.
Data set [26] concerns the target Receptor tyrosine-protein kinase erbB-2 (Homo sapiens, UniProt P04626). Briefly: Inhibition of recombinant ErbB2 (unknown origin) using poly (Glu,Tyr)4:1 as substrate after 60 mins by ELISA.
Data set [27] has as its target Epidermal growth factor receptor (Homo sapiens, UniProt P00533). Briefly: Inhibition of recombinant EGFR (unknown origin) using poly (Glu,Tyr)4:1 as substrate after 60 mins by ELISA.
The target in data set [28] is Receptor tyrosine-protein kinase erbB-4 (Homo sapiens, UniProt Q15303). Briefly: Inhibition of recombinant ErbB4 (unknown origin) using poly (Glu,Tyr)4:1 as substrate after 60 mins by ELISA.
In data set [29] the target is Vascular endothelial growth factor receptor 2 (Homo sapiens, UniProt P35968). The experiment in a line: Inhibition of recombinant KDR (unknown origin) using poly (Glu,Tyr)4:1 as substrate after 60 mins by ELISA.
For data set [30], the target named is Proto-oncogene tyrosine-protein kinase Src (Homo sapiens, UniProt P12931). Briefly: Inhibition of recombinant c-Src (unknown origin) using poly (Glu,Tyr)4:1 as substrate after 60 mins by ELISA.
In data set [31] the target is T1, ALK tyrosine kinase receptor. Briefly: Inhibition of ALK phosphorylation in human NCI-H3122 cells after 1 hr by Western blot method. In kind it is cell-based.
Target sequence in this assay (Q9UM73 19-1620 limits assumed): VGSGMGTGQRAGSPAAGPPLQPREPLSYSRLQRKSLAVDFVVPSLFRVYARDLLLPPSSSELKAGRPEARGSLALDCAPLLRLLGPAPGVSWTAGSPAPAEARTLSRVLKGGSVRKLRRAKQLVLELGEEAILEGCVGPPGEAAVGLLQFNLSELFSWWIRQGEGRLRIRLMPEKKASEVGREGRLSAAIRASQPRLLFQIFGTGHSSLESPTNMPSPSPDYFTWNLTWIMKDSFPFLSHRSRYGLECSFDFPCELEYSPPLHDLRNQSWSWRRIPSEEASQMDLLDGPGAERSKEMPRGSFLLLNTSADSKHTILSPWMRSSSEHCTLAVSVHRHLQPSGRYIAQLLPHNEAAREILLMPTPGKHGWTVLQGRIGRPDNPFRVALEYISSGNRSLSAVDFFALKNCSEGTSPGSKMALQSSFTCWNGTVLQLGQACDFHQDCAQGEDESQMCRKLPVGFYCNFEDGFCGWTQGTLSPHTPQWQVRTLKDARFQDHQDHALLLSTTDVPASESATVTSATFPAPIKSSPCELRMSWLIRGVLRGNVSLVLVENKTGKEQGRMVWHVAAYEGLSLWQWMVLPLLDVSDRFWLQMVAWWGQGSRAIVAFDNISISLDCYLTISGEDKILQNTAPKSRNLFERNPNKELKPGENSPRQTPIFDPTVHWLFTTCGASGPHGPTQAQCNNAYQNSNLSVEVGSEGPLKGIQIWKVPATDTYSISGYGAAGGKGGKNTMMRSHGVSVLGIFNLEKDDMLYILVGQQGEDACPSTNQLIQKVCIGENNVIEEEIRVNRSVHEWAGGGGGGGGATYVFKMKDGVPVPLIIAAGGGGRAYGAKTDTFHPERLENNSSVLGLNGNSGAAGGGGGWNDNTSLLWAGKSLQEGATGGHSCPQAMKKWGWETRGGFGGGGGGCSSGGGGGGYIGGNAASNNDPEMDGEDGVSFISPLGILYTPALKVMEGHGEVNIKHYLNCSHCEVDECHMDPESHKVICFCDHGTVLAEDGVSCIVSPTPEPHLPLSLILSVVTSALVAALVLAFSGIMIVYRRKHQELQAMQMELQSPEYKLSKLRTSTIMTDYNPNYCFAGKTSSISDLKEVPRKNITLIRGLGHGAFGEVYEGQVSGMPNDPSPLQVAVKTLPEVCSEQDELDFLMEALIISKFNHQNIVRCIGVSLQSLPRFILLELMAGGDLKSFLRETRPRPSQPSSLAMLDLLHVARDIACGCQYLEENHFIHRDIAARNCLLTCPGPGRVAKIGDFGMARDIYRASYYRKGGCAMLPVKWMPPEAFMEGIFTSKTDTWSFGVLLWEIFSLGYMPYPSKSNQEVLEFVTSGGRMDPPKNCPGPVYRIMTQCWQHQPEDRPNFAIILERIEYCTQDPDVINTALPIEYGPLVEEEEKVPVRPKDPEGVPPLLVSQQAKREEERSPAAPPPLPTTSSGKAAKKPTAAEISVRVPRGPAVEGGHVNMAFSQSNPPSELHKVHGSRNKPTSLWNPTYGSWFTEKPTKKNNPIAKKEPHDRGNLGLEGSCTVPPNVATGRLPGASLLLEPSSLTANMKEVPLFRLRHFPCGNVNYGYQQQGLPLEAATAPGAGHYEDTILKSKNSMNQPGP
The target is the same in data set [32]. Briefly: Inhibition of ALK in human NCI-H3122 cells assessed as decrease in STAT3 phosphorylation after 1 hr by Western blot method. The format is cell-based.
Target sequence in this assay (Q9UM73 19-1620 limits assumed): as above
The target is the same in data set [33]. Briefly: Inhibition of ALK in human NCI-H3122 cells assessed as decrease in Akt phosphorylation after 1 hr by Western blot method. In kind it is cell-based.
Target sequence in this assay (Q9UM73 19-1620 limits assumed): as above
A further data set concerns KARPAS-299. The experiment in a line: Antitumor activity against human KARPAS299 cells xenografted in nude mouse assessed as tumor regression at 10 to 50 mg/kg, po qd administered for 14 days measured post last dose. The format is functional, organism-based.
For data set [34], the target named is T1, ALK tyrosine kinase receptor. Briefly: Inhibition of ALK in human NCI-H3122 cells assessed as decrease in ERK phosphorylation after 1 hr by Western blot method. In kind it is cell-based.
Target sequence in this assay (Q9UM73 19-1620 limits assumed): as above

The text below walks through data of ChEMBL document CHEMBL3864153, “Metabolism-based structure optimization: Discovery of a potent and orally available tyrosine kinase ALK inhibitor bearing the tetracyclic benzo[b]carbazolone core” (Bioorg Med Chem Lett, 2016).

Calls of active or inactive are those of the source. No cut-off for these calls is given here.

Chain of Voltage-gated inwardly rectifying potassium channel KCNH2 (Q12809 whole entry): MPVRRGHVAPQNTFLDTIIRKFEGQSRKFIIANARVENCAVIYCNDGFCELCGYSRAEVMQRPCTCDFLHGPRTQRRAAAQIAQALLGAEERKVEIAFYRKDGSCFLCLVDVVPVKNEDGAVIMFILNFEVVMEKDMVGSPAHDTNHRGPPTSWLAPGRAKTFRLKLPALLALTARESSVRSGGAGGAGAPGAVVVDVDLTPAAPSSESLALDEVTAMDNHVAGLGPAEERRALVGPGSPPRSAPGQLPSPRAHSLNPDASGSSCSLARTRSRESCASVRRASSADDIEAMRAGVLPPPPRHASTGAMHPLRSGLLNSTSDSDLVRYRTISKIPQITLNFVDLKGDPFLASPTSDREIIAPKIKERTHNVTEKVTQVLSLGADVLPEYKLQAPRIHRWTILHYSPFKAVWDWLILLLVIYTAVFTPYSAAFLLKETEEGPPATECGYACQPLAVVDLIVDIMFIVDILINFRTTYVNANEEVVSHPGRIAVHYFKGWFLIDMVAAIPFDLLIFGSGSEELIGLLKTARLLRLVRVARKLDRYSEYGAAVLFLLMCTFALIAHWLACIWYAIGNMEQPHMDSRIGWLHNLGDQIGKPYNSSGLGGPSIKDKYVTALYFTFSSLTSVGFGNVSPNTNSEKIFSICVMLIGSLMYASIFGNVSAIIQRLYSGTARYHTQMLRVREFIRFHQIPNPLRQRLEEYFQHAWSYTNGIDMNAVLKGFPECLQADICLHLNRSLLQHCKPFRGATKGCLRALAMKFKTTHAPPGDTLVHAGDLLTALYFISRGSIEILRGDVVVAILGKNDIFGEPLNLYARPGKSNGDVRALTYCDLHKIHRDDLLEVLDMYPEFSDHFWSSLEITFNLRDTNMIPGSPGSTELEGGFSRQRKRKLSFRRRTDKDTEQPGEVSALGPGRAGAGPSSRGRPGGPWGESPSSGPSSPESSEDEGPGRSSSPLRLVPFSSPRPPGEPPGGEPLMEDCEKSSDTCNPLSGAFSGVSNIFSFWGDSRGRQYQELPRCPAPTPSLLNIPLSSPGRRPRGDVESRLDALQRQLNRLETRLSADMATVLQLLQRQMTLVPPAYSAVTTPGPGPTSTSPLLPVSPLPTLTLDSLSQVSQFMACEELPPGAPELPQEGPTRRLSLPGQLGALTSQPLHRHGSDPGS
Chain of ALK tyrosine kinase receptor (Homo sapiens, UniProt Q9UM73, L1196M) (Q9UM73 19-1620 L1196M limits assumed): as the sequence (Q9UM73 19-1620 limits assumed) above, with L1178M counted along it
Chain of Proto-oncogene tyrosine-protein kinase Src (P12931 2-536 limits assumed): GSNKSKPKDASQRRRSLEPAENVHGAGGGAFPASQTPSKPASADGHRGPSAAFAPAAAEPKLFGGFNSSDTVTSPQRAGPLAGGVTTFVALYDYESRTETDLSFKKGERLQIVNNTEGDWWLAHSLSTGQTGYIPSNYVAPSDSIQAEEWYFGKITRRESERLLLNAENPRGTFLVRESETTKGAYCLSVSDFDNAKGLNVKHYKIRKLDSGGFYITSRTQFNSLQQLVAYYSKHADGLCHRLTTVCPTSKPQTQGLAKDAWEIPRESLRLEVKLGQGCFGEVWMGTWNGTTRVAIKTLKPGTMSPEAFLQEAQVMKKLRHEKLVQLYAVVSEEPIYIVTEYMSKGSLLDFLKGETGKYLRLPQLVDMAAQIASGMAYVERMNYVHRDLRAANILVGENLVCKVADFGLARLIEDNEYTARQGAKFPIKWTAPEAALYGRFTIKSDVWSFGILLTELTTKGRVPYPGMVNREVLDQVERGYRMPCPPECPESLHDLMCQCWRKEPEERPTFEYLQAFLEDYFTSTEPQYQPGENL

In data set [1], `CCc1cc2c(cc1N1CCN(CC3(O)CC(C)OC(C)C3)CC1)C(C)(C)c1[nH]c3cc(C#N)ccc3c1C2=O` (stereo not given) had an inhibition at 0.01 µM of 40%. In [2], the IC50 was found to be 2.4 nM.

Turning to `CCc1cc2c(cc1N1CCN(CC3(O)CCCCC3)CC1)C(C)(C)c1[nH]c3cc(C#N)ccc3c1C2=O`, the IC50 in data set [2] turned out to be 7 nM. The same compound had an inhibition at 0.05 µM in [3] of 40%.

As for `CCc1cc2c(cc1N1CCN(CC(O)(CCC(=O)O)CC(=O)O)CC1)C(C)(C)c1[nH]c3cc(C#N)ccc3c1C2=O` (stereo not given), in data set [2], the IC50 turned out to be 17.1 nM. Further, the Drug metabolism entry in data set [4] was “Metabolite_Detected”. In data set [3], this compound gave an inhibition at 0.05 µM of 3%.

The compound `CC1(C)c2cc(C3CCN(CC4(O)CCOCC4)CC3)ccc2C(=O)c2c1[nH]c1cc(C#N)ccc21` displayed an IC50 in data set [5] greater than 12300 nM.

For `CCc1cc2c(cc1N1CCN(CC3(O)CCNCC3)CC1)C(C)(C)c1[nH]c3cc(C#N)ccc3c1C2=O`, the concentration for half-maximal inhibition (IC50) in data set [2] was 1.4 nM. In data set [3], this compound came in with an inhibition at 0.05 µM of 5%.

Compound `CC1(C)c2cc(C3CCN(CC4CCOCC4)CC3)ccc2C(=O)c2c1[nH]c1cc(C#N)ccc21` registered an IC50 in data set [5] of 2650 nM.

Consider `CCc1cc2c(cc1N1CCN(CC3(O)CCOCC3)CC1)C(C)(C)c1[nH]c3cc(C#N)ccc3c1C2=O.Cl`, for which, in [6], the inhibition in vivo at 10 mg/kg is 110%. For the same compound, the inhibition in vivo at 50 mg/kg in data set [7] is 110%. The Activity result with Mus musculus is “Non-Toxic”. Moreover, the inhibition in vivo at 20 mg/kg in [8] is greater than 100%.

In the case of `C[C@@H](Oc1cc(-c2cnn(C3CCNCC3)c2)cnc1N)c1c(Cl)ccc(F)c1Cl` [CRIZOTINIB], the inhibition in vivo at 50 mg/kg in [7] is 109%. Also, the IC50 was found to be 105 nM in data set [9], 92.3 nM in data set [10] and 101 nM in data set [11].

On to `CCc1cc2c(cc1N1CCN(CC3(O)CCOCC3)CC1)C(C)(C)c1[nH]c3cc(C#N)ccc3c1C2=O` [listing 1 of 2 here], for which the IC50 is 30000 to 33400 nM in [5]; 4.2 nM in data set [13]; greater than 1000 nM in [14]; greater than 1000 nM in [17]; greater than 1000 nM in data set [18]; 22.6 nM in [9]. Besides, the IC50 on Ephrin type-A receptor 2 was greater than 1000 nM; in data set [2], 1.5 nM; in [22] it was greater than 1000 nM; in data set [25], greater than 1000 nM; in data set [26] it was greater than 1000 nM; in data set [10] it was 16.7 nM. The IC50 in [27] is greater than 1000 nM; in [11] it was 24.4 nM; in data set [28], greater than 1000 nM; in [29], greater than 1000 nM; in data set [30], greater than 1000 nM. In data set [12], this compound gave a clearance of 12.2 mL/min/kg. The bioavailability in data set [15] worked out at 105%. In addition, the highest level in data set [16] (Cmax) was 867 ng/mL. The results for the AUC(0-inf) in data set [19] and in [21] were 6640 ng·h/mL and 11700 ng·h/mL, respectively. The compound further had a distribution volume (Vd) in data set [20] of 5 L/kg. In data set [23], the time to peak (Tmax) amounted to 4 h. The same compound gave a half-life in data set [24] of 5.5 h. This compound yielded an inhibition at 0.05 µM in data set [3] of 80%.

In the case of `CCc1cc2c(cc1N1CCN(CC3(O)CCOCC3)CC1)C(C)(C)c1[nH]c3cc(C#N)ccc3c1C2=O` [listing 2 of 2 here], the inhibition entry in [31], in [32], in data set [33] and in [34] was “Dose-dependent effect” each time. Besides, the result in the data set with KARPAS-299 was Active.

Broadly, the inhibition is the percentage by which the read-out fell short of the control. What is called IC50 is the concentration needed to halve the response being measured. By clearance is commonly meant the rate of elimination divided by the concentration. The low end stands for a low capacity for elimination, the high end for a high capacity for elimination. A word on the Cmax: it is the maximum level reached in the sampled fluid or tissue. For orientation: AUC(0-inf) means the area under the concentration-time curve extrapolated to infinity. Lower therefore signals low exposure. One may read the Vd as a proportionality between amount in the body and measured concentration, not a real space. Low readings indicate confinement near the circulation, high ones extensive tissue distribution. By Tmax is commonly meant the time from dosing to the highest level. The term half-life denotes how long it takes for the measured level to halve. Lower therefore signals rapid decline.
